Common to all, as to format: biochemical
One assay concerns the target T1, human DPP8 (Homo sapiens, UniProt Q6V1X1).
T1 construct: purchased Proteros Biostructures GmbH, Germany
As to the kind of experiment: Progress-curve kinetics of covalent DPP8 inhibition (kinact, KI). The conditions noted are these: dark. The text has this:
(§1) As previously shown by us, 1 inhibits DPP8 and DPP9 via a covalent modification of the active site serine.^[ [31] ^] Therefore, we also measured the time dependence of this covalent modification of the target enzyme by recording progress curves for the inhibition of DPP8 and 9 and using them to calculate the corresponding binding affinity (KI), maximum enzyme inhibition rate (kinact) as well as the efficiency of covalent bond formation (kinact/KI) values for 5 after and without green light irradiation ( Figure S1 and Table S1, Supporting Information).
(§2) To calculate the reaction rate of covalent bond formation between DPP proteins and the inhibitor, kinact, KI, and kinact/KI were determined as previously described.^[ [49] ^, [50] ^] To this end, a dilution series of 5 was irradiated using a green LED lamp (λ = 520−530 nm; Eurolite, Germany) for 5 min and subsequently mixed with 250 µM GP‐AMC. The mixture was then added to 10 nM enzyme, and the resulting activity was measured for a maximum of 60 min at 30 °C. Fluorescence intensities were plotted against time and data were fitted to the following equation: [drawing 1] using Graph‐Pad Prism v10.4.1. The obtained pseudo first‐order rate constant was used to determine kinact and KI by fitting the plot of kobs against inhibitor concentration to the following equation: [drawing 2] . The efficiency of covalent bond formation (kinact/KI) was calculated by the ratio of kinact/KI. All measurements were performed in triplicate, and error bars represent standard errors of the fit.
(§3) Supplementary Figure 1. Kinetic analysis of DPP8 and DPP9 inhibition by compound 5. The pseudo-first order rate constant (kobs) was calculated from an exponential regression of progress curves and plotted against the concentration of compound 5. All measurement were performed in triplicate (n = 3 technical replicates), mean values are shown and error bars indicate the standard error of the mean (SEM). Inhibition assay was performed with DPP8 (A, B) and DPP9 (C, D) under ‘dark’ (A, C) and ‘light’ (B, D) conditions. […]

Assay [1] addresses T2, DPP9 (Homo sapiens, UniProt Q86TI2). As to the kind of experiment: DPP9 enzyme inhibition assay, AMC release from GP-AMC. Also on record: purchased Proteros Biostructures GmbH, Germany. The settings on record: for IC50: read-out: Apparent IC50. The text has this:
We then continued to investigate the biochemical properties of the photocaged compound 5 versus the photoreleased product resembling inhibitor 1. To this end, we performed biochemical enzyme inhibition assays with DPP8 and DPP9 before and after irradiation of 5. Resulting DPP8/9 inhibition was quantified by following the DPP8‐ or DPP9‐mediated proteolysis of the fluorophore 7‐amino‐4‐methylcoumarin (AMC) from the model substrate Gly‐Pro‐AMC (Figure 1C,D and Table 1 ). To induce photocleavage of 5, reaction mixtures were irradiated for 5 min with the same green LED lamp as before, followed by a pre‐incubation of 45 min with the photoreleased inhibitor prior to substrate addition.
Enzyme activity of human DPP4, DPP8, and DPP9 (Proteros Biostructures GmbH, Germany) was determined by measuring the initial velocity of AMC release from the fluorogenic substrate GP‐AMC (Sigma Aldrich, USA) using a Tecan Spark 10 M multimode microplate reader (Tecan Group Ltd., Switzerland) in activity buffer (20 mM HEPES/KOH pH 7.3, 110 mM potassium acetate, 2 mM magnesium acetate, 0.5 mM EGTA, 0.02% Tween 20, supplemented with 1 mM DTT) and a final volume of 20 μL for maximal 30 min at 30 °C. Prior to the activity measurement, 10 nM of the corresponding enzyme was incubated for 45 min at 30 °C and gentle shaking with the indicated compounds at concentrations ranging from 0 to 100 μM, followed by irradiation with a green LED lamp (λ = 520−530 nm; Eurolite, Germany) for 5 min. The corresponding compounds were dissolved in DMSO and diluted in activity buffer (final DMSO concentration: 1%). To the inhibitor–enzyme mixture, GP‐AMC was then added to a final concentration of 250 μM, and the activity measurement was started. The resulting enzyme activity was calculated from the slope (fluorescence release over time) and plotted against the concentrations of the inhibitor. Apparent IC50 values were calculated using Graph‐Pad Prism v10.4.1 using the equation: [Inhibitor] versus response‐Variable slope (four parameters). All measurements were performed in triplicate, and error bars represent standard errors of the fit.

Assay [2] has as its target T2, DPP9. The experiment in a line: Progress-curve kinetics of covalent DPP9 inhibition (kinact, KI). On the set-up: purchased Proteros Biostructures GmbH, Germany. The conditions noted are these: dark.
Excerpt: as §1, §2, §3

Structures are written as SMILES. Read-outs that look alike come from different tables or passages of the source.

T2 sequence (Q86TI2 whole entry): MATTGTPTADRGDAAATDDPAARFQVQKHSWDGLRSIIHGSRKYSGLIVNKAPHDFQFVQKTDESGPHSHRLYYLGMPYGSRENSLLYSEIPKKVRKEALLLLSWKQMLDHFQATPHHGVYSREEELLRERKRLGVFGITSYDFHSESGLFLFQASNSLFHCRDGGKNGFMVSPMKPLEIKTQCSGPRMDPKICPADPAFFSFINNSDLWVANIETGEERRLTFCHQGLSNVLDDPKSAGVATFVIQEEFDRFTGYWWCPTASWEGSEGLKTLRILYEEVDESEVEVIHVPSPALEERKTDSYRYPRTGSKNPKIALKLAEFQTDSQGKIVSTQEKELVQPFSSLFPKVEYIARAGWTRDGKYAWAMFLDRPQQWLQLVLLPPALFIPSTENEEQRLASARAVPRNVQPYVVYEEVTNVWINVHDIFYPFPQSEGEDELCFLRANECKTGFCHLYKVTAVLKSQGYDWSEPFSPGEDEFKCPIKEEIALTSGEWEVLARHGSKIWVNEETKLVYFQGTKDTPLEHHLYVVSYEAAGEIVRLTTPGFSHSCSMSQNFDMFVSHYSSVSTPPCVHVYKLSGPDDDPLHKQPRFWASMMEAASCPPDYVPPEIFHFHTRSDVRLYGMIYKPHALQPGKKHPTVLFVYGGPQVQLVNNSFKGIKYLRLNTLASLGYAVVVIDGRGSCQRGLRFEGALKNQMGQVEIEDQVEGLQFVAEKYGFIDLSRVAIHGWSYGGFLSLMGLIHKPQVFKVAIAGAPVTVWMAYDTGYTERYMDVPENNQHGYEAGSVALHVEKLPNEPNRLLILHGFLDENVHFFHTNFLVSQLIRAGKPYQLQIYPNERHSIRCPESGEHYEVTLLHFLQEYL
T1 sequence (Q6V1X1 whole entry): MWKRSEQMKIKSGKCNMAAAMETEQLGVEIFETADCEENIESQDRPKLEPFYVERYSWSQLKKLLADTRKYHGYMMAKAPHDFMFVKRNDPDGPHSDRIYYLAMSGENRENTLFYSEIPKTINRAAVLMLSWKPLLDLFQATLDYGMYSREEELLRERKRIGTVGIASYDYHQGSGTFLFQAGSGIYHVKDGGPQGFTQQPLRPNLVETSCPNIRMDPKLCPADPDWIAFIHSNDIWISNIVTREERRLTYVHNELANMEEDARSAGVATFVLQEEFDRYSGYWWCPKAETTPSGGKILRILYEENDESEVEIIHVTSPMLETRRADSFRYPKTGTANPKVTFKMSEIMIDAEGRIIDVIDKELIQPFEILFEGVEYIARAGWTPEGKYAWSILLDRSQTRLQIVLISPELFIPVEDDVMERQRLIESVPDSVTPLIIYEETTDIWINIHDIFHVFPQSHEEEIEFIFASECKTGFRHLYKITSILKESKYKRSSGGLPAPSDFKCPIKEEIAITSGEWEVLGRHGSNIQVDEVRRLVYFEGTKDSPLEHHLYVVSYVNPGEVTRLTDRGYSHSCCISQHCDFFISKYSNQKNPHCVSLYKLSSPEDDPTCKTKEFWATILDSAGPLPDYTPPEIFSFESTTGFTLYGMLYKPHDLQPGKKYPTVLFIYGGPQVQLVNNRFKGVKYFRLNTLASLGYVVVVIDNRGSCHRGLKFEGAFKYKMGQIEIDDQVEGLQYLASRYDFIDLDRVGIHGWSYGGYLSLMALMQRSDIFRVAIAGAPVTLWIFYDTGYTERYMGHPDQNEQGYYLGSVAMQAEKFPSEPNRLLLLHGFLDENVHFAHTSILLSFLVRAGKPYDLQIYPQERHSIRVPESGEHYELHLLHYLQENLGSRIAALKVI

As a reminder, the kinact is the rate constant of inactivation at saturating inhibitor. The term kinact/KI denotes the second-order rate constant of inactivation. What is called IC50 is the concentration needed to halve the response being measured. In the case of `CCCCCc1ccc(SCCP(=O)(OCC)N2CCC[C@H](NC(=O)OCC3=C4C(C)=CC(C)=[N+]4[B-](C)(C)n4c(C)cc(C)c43)C2=O)cc1` (some centres unmarked) [Compound 5], the KI (inactivation) on human DPP8 worked out at 8.94 µM; at DPP9 [2] it was 32.2 µM. Also, the kinact at human DPP8 was found to be 0.002 s⁻¹; at DPP9 [2], 0.000464 s⁻¹. In addition, the inactivation efficiency (kinact/KI) on human DPP8 amounted to 223 M⁻¹ s⁻¹; at DPP9 [2], 14 M⁻¹ s⁻¹. In addition, the “Dark/light ratio of apparent IC50” value on DPP9 [1] turned out to be 40. Besides, the “Increase in potency after green light-mediated photorelease” value on DPP9 [1] (apparent IC50 dark vs light) is roughly 40 fold. The IC50 is 24.7 µM on DPP9 [1] (dark (without green light irradiation), 45 min pre-incubation); 0.621 ± 0.054 µM on DPP9 [1] (light (5 min green LED, 520-530 nm), 45 min pre-incubation); 24.7 ± 6.8 µM on DPP9 [1] (without irradiation).

Source of the values: PMC12498190, “A Photocaged N‐Phosphonopiperidinone as a Selective Photo‐Cleavable DPP8/9 Inhibitor” (Chembiochem, 2025).
